The values below come from US12252486B2, “Solid state forms” (Amgen Inc., priority 2019, dated 2025).

Data set [1] relates to KRAS^G12C tumors. As to conditions: preclinical analyses, combination; cited from earlier work.
The test system of data set [2] is KRAS^G12C tumors. Conditions: immune-competent mice; alone as well as in combination with immune-checkpoint inhibitors; cited from earlier work.
For data set [3] the following is noted: clinical trials, first dosing cohorts; cited from earlier work.
The nature of data set [4]: solubility assessment during lead optimization. The data set is classed as physicochemical. An excerpt:
Within the pharmaceutical research and development field, the investigation of a suitable solid-state form represents a crucial step. Investigating a solid-state form comprises several decisions, mainly the investigation of an anhydrous, salt or co-crystal form and the investigation of a polymorph of the respective anhydrous, salt or co-crystal. During a lead optimization program, several properties of research compounds are optimized, typically leading to one or a few candidates that continue into exploratory development programs. Typically, in the assessment and optimization of physical chemical parameters during lead optimization, the main focus is on solubility. […] Beyond the optimization of solubility, further physical chemical parameters, such as (1) melting point, (2) thermal behavior, (3) hygroscopicity, (4) crystal habit, (5) polymorphic behavior or physical stability, (6) impurity profile, and (7) chemical stability of the anhydrous or salt form, must be borne in mind when investigating the salt. The melting point of a drug, either as a free base, acid or salt form, should be higher than a certain threshold to allow processing steps such as drying or tableting. The assessment of thermal behavior, which is typically done by thermogravimetry (TGA) and differential scanning calorimetry (DSC), also includes solid-solid phase transitions. […]

Molecules are shown by their SMILES.

Take `C=CC(=O)N1CCN(c2nc(=O)n(-c3c(C)ccnc3C(C)C)c3nc(-c4c(O)cccc4F)c(F)cc23)[C@@H](C)C1` [AMG 510]: the “effect on anti-tumor efficacy of chemotherapy and targeted agents” value in the data set with KRAS^G12C tumors [1] was “improved the anti-tumor efficacy of chemotherapy and targeted agents”. The cures result in the data set with KRAS^G12C tumors [2] is given as “durable cures”. The anti-tumor activity result in data set [3] was “demonstrated anti-tumor activity”.

As for `C=CC(=O)N1CCN(c2nc(=O)n(-c3c(C)ccnc3C(C)C)c3nc(-c4c(O)cccc4F)c(F)cc23)[C@@H](C)C1` [Compound 1, 6-fluoro-7-(2-fluoro-6-hydroxyphenyl)-1-(4-methyl-2-(2-propanyl)-3-pyridinyl)-4-((2S)-2-methyl-4-(2-propenoyl)-1-piperazinyl)pyrido[2,3-d]pyrimidin-2(1H)-one], in data set [4], the solubility result is recorded as “good solubility features”.
